Converted amounts (≈) assume the structure as drawn. The source made the active and inactive calls. No cut-off for these calls is given here.
Key:
Staphylococcus aureus [1] = assay: Antibacterial activity against methicillin-resistant Staphylococcus aureus N315 measured by Muller-Hinton broth based microdilution assay; format: functional
Enterococcus faecalis = assay: Antibacterial activity against Enterococcus faecalis measured by Muller-Hinton broth based microdilution assay; format: functional
Staphylococcus aureus [2] = assay: Antibacterial activity against Staphylococcus aureus measured by Muller-Hinton broth based microdilution assay; format: functional
Staphylococcus aureus [3] = assay: Antibacterial activity against Staphylococcus aureus ATCC 25923 measured by Muller-Hinton broth based microdilution assay; format: functional
Staphylococcus aureus [4] = assay: Antibacterial activity against Staphylococcus aureus ATCC 29213 measured by Muller-Hinton broth based microdilution assay; format: functional
Klebsiella pneumoniae = assay: Antibacterial activity against Klebsiella pneumoniae measured by Muller-Hinton broth based microdilution assay; format: functional
Escherichia coli [5] = assay: Antibacterial activity against Escherichia coli measured by Muller-Hinton broth based microdilution assay; format: functional
Pseudomonas aeruginosa [6] = assay: Antibacterial activity against Pseudomonas aeruginosa measured by Muller-Hinton broth based microdilution assay; format: functional
Acinetobacter baumannii = assay: Antibacterial activity against Acinetobacter baumannii measured by Muller-Hinton broth based microdilution assay; format: functional
Pseudomonas aeruginosa [7] = assay: Antibacterial activity against Pseudomonas aeruginosa ATCC 27853 measured by Muller-Hinton broth based microdilution assay; format: functional
Escherichia coli [8] = assay: Antibacterial activity against Escherichia coli ATCC 25922 measured by Muller-Hinton broth based microdilution assay; format: functional
Staphylococcus aureus [9] = assay: Antibacterial activity against Staphylococcus aureus assessed as fold increase in MIC measured after 16 passages by resistance development assay; format: functional
Pseudomonas aeruginosa [10] = assay: Antibacterial activity against Pseudomonas aeruginosa assessed as fold increase in MIC measured after 16 passages by resistance development assay; format: functional
[11] = Hemolytic activity in human RBC measured after 1 hr; format: toxicity, cell-based, Erythrocyte; conditions: human red blood cells (erythrocytes)
[12] = Selectivity ratio of HC50 for hemolytic activity in human RBC to MIC for antibacterial activity against Staphylococcus aureus; format: toxicity; conditions: human red blood cells (erythrocytes)
[13] = Hemolytic activity in human RBC assessed as hemolytic rate at 2 to 512 ug/ml and measured after 1 hr; format: toxicity, cell-based, Erythrocyte; conditions: human red blood cells (erythrocytes), at 2 to 512 µg/mL, dose 2-512 µg/ml, read-out: Activity
Staphylococcus aureus [14] = assay: Antibacterial activity against Staphylococcus aureus measured after 16 passages by resistance development assay; format: functional, organism-based
Staphylococcus aureus [15] = assay: Inhibition of bacterial growth of Staphylococcus aureus at 1 to 2 times MIC; format: functional
Staphylococcus aureus [16] = assay: Bactericidal activity against Staphylococcus aureus assessed as reduction in number of colonies at 0.5 to 2 times MIC measured within 6 hrs by time-kill assay; format: functional, organism-based
Staphylococcus aureus [17] = assay: Induction of membrane depolarization in Staphylococcus aureus at 0.5 to 2 times MIC measured upto 1 hr by DiSC35 dye-based fluorescence assay; format: functional, organism-based
Staphylococcus aureus [18] = assay: Induction of inner membrane permeabilization in Staphylococcus aureus by measuring increase in fluorescence intensity at 1 to 8 times MIC by calcein-AM/PI staining based fluorescence analysis; format: functional, organism-based
Staphylococcus aureus [19] = assay: Disruption of membrane integrity in Staphylococcus aureus at 8 times MIC by calcein-AM/PI staining based fluorescence analysis; format: functional, organism-based
Staphylococcus aureus [20] = assay: Antibacterial activity against Staphylococcus aureus assessed as deformed and shriveled cell structures at 1 to 2 ug/ml measured by SEM analysis; format: functional, organism-based; conditions: dose 1-2 µg/ml
Escherichia coli [21] = assay: Antibacterial activity against Escherichia coli assessed as deformed and shriveled cell structures at 8 to 16 ug/ml measured by SEM analysis; format: functional, organism-based; conditions: dose 8-16 µg/ml
Staphylococcus aureus [22] = assay: Antibacterial activity against Staphylococcus aureus assessed as lysed debris at 1 to 2 ug/ml measured by SEM analysis; format: functional, organism-based; conditions: dose 1-2 µg/ml
Escherichia coli [23] = assay: Antibacterial activity against Escherichia coli assessed as lysed debris at 8 to 16 ug/ml measured by SEM analysis; format: functional, organism-based; conditions: dose 8-16 µg/ml
Staphylococcus aureus [24] = assay: Disruption of membrane integrity in Staphylococcus aureus assessed as increase in nucleic acid leakage by measuring increase in absorbance 1 to 8 times MIC measured for 6 hrs by spectrophotometry; format: functional, organism-based
Staphylococcus aureus [25] = assay: Disruption of membrane integrity in Staphylococcus aureus assessed as increase in protein leakage by measuring increase in absorbance 1 to 8 times MIC measured for 6 hrs by Bradford assay; format: functional, organism-based
Staphylococcus aureus [26] = assay: Antibacterial activity against Staphylococcus aureus assessed as reduction in LDH activity at 1 to 8 times MIC measured after 6 hrs by microplate reader method; format: functional; set-up: scale not given: the % may be the effect or the level left
Staphylococcus aureus [27] = assay: Induction of oxidative stress in Staphylococcus aureus assessed as increase in intracellular ROS level at 1 to 8 times MIC measured after 6 hrs by DCFH-DA staining method; format: functional, organism-based
Staphylococcus aureus [28] = assay: Induction of oxidative stress in Staphylococcus aureus assessed as decrease in GSH activity at 1 to 8 times MIC measured after 6 hrs by Ellman's assay; format: functional, organism-based
Staphylococcus aureus [29] = assay: Antibacterial activity against Staphylococcus aureus assessed as reduction in metabolic activity at 1 to 8 times MIC measured after 6 hrs by Alamar blue assay; format: functional, organism-based
Staphylococcus aureus [30] = assay: Inhibition of biofilm formation in Staphylococcus aureus at 1 to 8 times MIC measured after 24 hrs by crystal violet staining method; format: functional, organism-based
Staphylococcus aureus [31] = assay: Antibiofilm activity in Staphylococcus aureus at 1 to 8 times MIC measured by Alamar blue assay; format: functional, organism-based
L929 = assay: Cytotoxicity against mouse L929 cells assessed as effect on cell growth at 0.25 to 0.5 ug/ml incubated for 24 hrs by MTT assay; format: toxicity, cell-based; conditions: l929, 24 h, dose 0.25-0.5 µg/ml
[32] = Toxicity in systemic sepsis mouse model infected with Staphylococcus aureus assessed as effect on liver morphology at 2.5 to 5 mg/kg administered every 12 hrs for 3 days and measured by H and E staining-based assay; format: organism-based; conditions: in vivo, 72 h, dose 2.5-5 mg/kg, time 3 day
[33] = Toxicity in systemic sepsis mouse model infected with Staphylococcus aureus assessed as effect on spleen morphology at 2.5 to 5 mg/kg administered every 12 hrs for 3 days and measured by H and E staining-based assay; format: organism-based; conditions: in vivo, 72 h, dose 2.5-5 mg/kg, time 3 day
[34] = Toxicity in systemic sepsis mouse model infected with Staphylococcus aureus assessed as effect on kidney morphology at 2.5 to 5 mg/kg administered every 12 hrs for 3 days and measured by H and E staining-based assay; format: organism-based; conditions: in vivo, 72 h, dose 2.5-5 mg/kg, time 3 day

## CCn1cc(C(=O)O)c(=O)c2cc(F)c(N3CCNCC3)cc21 [NORFLOXACIN]
Staphylococcus aureus [1]
  MIC: 16 mg/L (≈ 50.1 µM)
Enterococcus faecalis
  MIC: 8 mg/L (≈ 25.1 µM)
Staphylococcus aureus [2]
  MIC: 8 mg/L (≈ 25.1 µM)
Staphylococcus aureus [3]
  MIC: 16 mg/L (≈ 50.1 µM)
Staphylococcus aureus [4]
  MIC: 16 mg/L (≈ 50.1 µM)
Klebsiella pneumoniae
  MIC: 4 mg/L (≈ 12.5 µM)
Escherichia coli [5]
  MIC: 2 mg/L (≈ 6.26 µM)
Pseudomonas aeruginosa [6]
  MIC: 4 mg/L (≈ 12.5 µM)
Acinetobacter baumannii
  MIC: 1 mg/L (≈ 3.13 µM)
Pseudomonas aeruginosa [7]
  MIC: 2 mg/L (≈ 6.26 µM)
Escherichia coli [8]
  MIC: 4 mg/L (≈ 12.5 µM)
Staphylococcus aureus [9]
  fold change (FC): 64
Pseudomonas aeruginosa [10]
  fold change (FC): 128

## CCn1c2ccccc2c2cc(/C=N/Nc3ccc4c5c(cccc35)C(=O)N(C(CO)CO)C4=O)ccc21
Staphylococcus aureus [1]
  MIC: 64 mg/L (≈ 126 µM)
Enterococcus faecalis
  MIC: 8 mg/L (≈ 15.8 µM)
Staphylococcus aureus [2]
  MIC: 0.25 mg/L (≈ 0.494 µM)
Staphylococcus aureus [3]
  MIC: 2 mg/L (≈ 3.95 µM)
Staphylococcus aureus [4]
  MIC: 0.5 mg/L (≈ 0.987 µM)
Klebsiella pneumoniae
  MIC: 8 mg/L (≈ 15.8 µM)
Escherichia coli [5]
  MIC: 8 mg/L (≈ 15.8 µM)
Pseudomonas aeruginosa [6]
  MIC: 64 mg/L (≈ 126 µM)
Acinetobacter baumannii
  MIC: 64 mg/L (≈ 126 µM)
Pseudomonas aeruginosa [7]
  MIC: 2 mg/L (≈ 3.95 µM)
Escherichia coli [8]
  MIC: 128 mg/L (≈ 253 µM)
[11]
  HC50 at 1 h: 722 µg/mL
[12]
  selectivity ratio: 2890
[13]
  hemolysis at 1 h: < 5%
Staphylococcus aureus [14]
  Activity: Active
Staphylococcus aureus [15]
  inhibition: Active
Staphylococcus aureus [16]
  Activity: Active
Staphylococcus aureus [17]
  Activity: Active
Staphylococcus aureus [18]
  Activity: Active
Staphylococcus aureus [19]
  Activity: Active
Staphylococcus aureus [20]
  Activity: Active
Escherichia coli [21]
  Activity: Active
Staphylococcus aureus [22]
  Activity: Active
Escherichia coli [23]
  Activity: Active
Staphylococcus aureus [24]
  Activity: Active
Staphylococcus aureus [25]
  Activity: Active
Staphylococcus aureus [26]
  Activity: 70%
Staphylococcus aureus [27]
  Activity: Active
Staphylococcus aureus [28]
  Activity: Active
Staphylococcus aureus [29]
  Activity: Active
Staphylococcus aureus [30]
  inhibition: Active
Staphylococcus aureus [31]
  Activity: Active
L929
  Activity: Non-Toxic
[32]
  Activity: Non-Toxic
[33]
  Activity: Non-Toxic
[34]
  Activity: Non-Toxic

Reference: ChEMBL document CHEMBL5108027, “An unanticipated discovery of novel naphthalimidopropanediols as potential broad-spectrum antibacterial members” (Eur J Med Chem, 2022)
